# Reference: ChEMBL document CHEMBL1201862, “PubChem BioAssay data set” (2004)
#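 Following 48 hours of exposure in 96-well plates, responses at five concentrations were used to interpolate endpoints linearly. Here, GI50 denotes the concentration required for 50% inhibition of growth.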 Calls of active or inactive are those of the source. Rule as the data show it: active = GI50 up to about 1.1 µM and inactive = higher.
# How the values were obtained:
# Assay in all cases: NCI anticancer screen, dose series, 48 h
# [1] = tested on: OVCAR-5
# [2] = tested on: CAKI-1
# [3] = tested on: SK-MEL-2
# [4] = tested on: PC-3
# [5] = tested on: SF-539
# [6] = tested on: HT-29
# [7] = tested on: KM12
# [8] = tested on: MDA-MB-231
# [9] = tested on: TK-10
# [10] = tested on: SR
# [11] = tested on: HOP-92
# [12] = tested on: SF-268
# [13] = tested on: M14
# [14] = tested on: MDA-N
# [15] = tested on: BT-549
# [16] = tested on: HCT-15
# [17] = tested on: SF-295
# [18] = tested on: A549
# [19] = tested on: Hs-578T
# [20] = tested on: HL-60
SMILES,GI50 [1],GI50 [2],GI50 [3],GI50 [4],GI50 [5],GI50 [6],GI50 [7],GI50 [8],GI50 [9],GI50 [10],GI50 [11],GI50 [12],GI50 [13],GI50 [14],GI50 [15],GI50 [16],GI50 [17],GI50 [18],GI50 [19],GI50 [20]
CC(C)(C)c1cc(/C=C(\C#N)C(=O)NCCO)cc(C(C)(C)C)c1O,24.1 µM (inactive),24.5 µM (inactive),17.6 µM (inactive),18.2 µM (inactive),18.3 µM (inactive),21 µM (inactive),21.5 µM (inactive),18.4 µM (inactive),22.3 µM (inactive),17.5 µM (inactive),45.7 µM (inactive),31.9 µM (inactive),17.1 µM (inactive),18.7 µM (inactive),25.1 µM (inactive),20.7 µM,16.9 µM (inactive),27.4 µM (inactive),37.8 µM (inactive),15.7 µM (inactive)
O=C1/C(=C/c2ccc(OC(=O)c3ccccc3)cc2)CCC/C1=C\c1ccc(OC(=O)c2ccccc2)cc1,> 100 µM (inactive),> 100 µM (inactive),> 100 µM (inactive),> 100 µM (inactive),> 100 µM (inactive),> 100 µM (inactive),> 100 µM (inactive),> 100 µM (inactive),> 100 µM (inactive),> 100 µM (inactive),> 100 µM (inactive),> 100 µM (inactive),> 100 µM (inactive),> 100 µM (inactive),> 100 µM (inactive),> 100 µM,> 100 µM (inactive),> 100 µM (inactive),> 100 µM (inactive),> 100 µM (inactive)
CCO/N=C(/CC)c1ccc(Br)s1,> 100 µM (inactive),> 100 µM (inactive),> 100 µM (inactive),> 100 µM (inactive),> 100 µM (inactive),> 100 µM (inactive),> 100 µM (inactive),> 100 µM (inactive),> 100 µM (inactive),52.2 µM (inactive),> 100 µM (inactive),> 100 µM (inactive),> 100 µM (inactive),> 100 µM (inactive),> 100 µM (inactive),> 100 µM,> 100 µM (inactive),> 100 µM (inactive),> 100 µM (inactive),33 µM (inactive)
O=C1C(Cl)C(c2cccc(Br)c2)N1c1c(O)c(Cl)cc(Br)c1Cl (stereo not given),26.7 µM (inactive),19.3 µM (inactive),7.08 µM (inactive),18 µM (inactive),15.6 µM (inactive),5.81 µM (inactive),16.7 µM (inactive),17 µM (inactive),19 µM (inactive),20.4 µM (inactive),6.93 µM (inactive),14.8 µM (inactive),13.9 µM (inactive),18.5 µM (inactive),25.8 µM (inactive),2.32 µM,17.4 µM (inactive),17.3 µM (inactive),9.46 µM (inactive),26.4 µM (inactive)
CC(=O)CC(=O)Nc1ccc2ccccc2c1,> 100 µM (inactive),84.3 µM (inactive),> 100 µM (inactive),> 100 µM (inactive),53.6 µM (inactive),> 100 µM (inactive),> 100 µM (inactive),> 100 µM (inactive),65.8 µM (inactive),51.5 µM (inactive),> 100 µM (inactive),> 100 µM (inactive),> 100 µM (inactive),> 100 µM (inactive),> 100 µM (inactive),95.3 µM,69.7 µM (inactive),> 100 µM (inactive),> 100 µM (inactive),> 100 µM (inactive)
Oc1ncc(N(CCCl)CCCl)c(O)n1 [URACIL MUSTARD],39.3 µM (inactive),4.33 µM (inactive),> 97.3 µM (inactive),57.3 µM (inactive),11.7 µM (inactive),69.8 µM (inactive),89.3 µM (inactive),81.3 µM (inactive),110 µM (inactive),1.58 µM (inactive),23.8 µM (inactive),12.7 µM (inactive),20.7 µM (inactive),60.4 µM (inactive),38.5 µM (inactive),50.2 µM,14.7 µM (inactive),23.3 µM (inactive),91 µM (inactive),1.43 µM (inactive)
CCOc1cc2c(cc1O)C(O)C[C@@H]1[C@@H]2CC[C@]2(C)[C@@H](O)CC[C@@H]12 (stereo not given in full),52.2 µM (inactive),0.514 µM (active),> 100 µM (inactive),3.44 µM (inactive),0.28 µM (active),4.44 µM (inactive),3.24 µM (inactive),1.25 µM (inactive),0.661 µM (active),4.94 µM (inactive),12.5 µM (inactive),4.16 µM (inactive),0.575 µM (active),0.0459 µM (active),39.1 µM (inactive),0.218 µM,0.281 µM (active),0.231 µM (active),0.46 µM (active),0.0822 µM (active)
CCOC(=O)C(Cc1ccc(N(CCCl)CCCl)cc1)NC(=O)C(Cc1ccccc1)NC=O (stereo not given),0.337 µM (active),0.0385 µM (active),0.161 µM (active),0.27 µM (active),0.139 µM (active),0.142 µM (active),0.48 µM (active),0.262 µM (active),0.157 µM (active),0.00811 µM (active),0.126 µM (active),0.0968 µM (active),0.102 µM (active),0.24 µM (active),0.437 µM (active),0.29 µM,0.257 µM (active),0.431 µM (active),0.388 µM (active),0.0638 µM (active)
COc1cc(-c2c(C#N)c(N)c(C#N)c3c2COc2ccccc2-3)cc(OC)c1OC,> 100 µM (inactive),53.1 µM (inactive),22.6 µM (inactive),> 25.6 µM (inactive),5.35 µM (inactive),> 30.6 µM (inactive),> 100 µM (inactive),15.1 µM (inactive),17.6 µM (inactive),> 74 µM (inactive),16.9 µM (inactive),11.5 µM (inactive),> 100 µM (inactive),> 100 µM (inactive),31.6 µM (inactive),> 100 µM,24.9 µM (inactive),> 100 µM (inactive),16.4 µM (inactive),> 100 µM (inactive)
CC1(C)N/C(=C\[N+](=O)[O-])C(C)(C)N1O,> 10 µM (inactive),> 10 µM (inactive),> 10 µM (inactive),> 10 µM (inactive),> 10 µM (inactive),> 10 µM (inactive),> 10 µM (inactive),> 10 µM (inactive),> 10 µM (inactive),> 10 µM (inactive),> 10 µM (inactive),> 10 µM (inactive),> 10 µM (inactive),> 10 µM (inactive),> 10 µM (inactive),> 10 µM,> 10 µM (inactive),> 10 µM (inactive),> 10 µM (inactive),> 10 µM (inactive)
Cn1cc(-c2cnc(-c3cn(C)c4ccccc34)cn2)c2ccccc21,14 µM (inactive),6.67 µM (inactive),5.87 µM (inactive),3.73 µM (inactive),3.37 µM (inactive),4.78 µM (inactive),0.0471 µM (active),15 µM (inactive),18.6 µM (inactive),3.09 µM (inactive),12.9 µM (inactive),5.48 µM (inactive),3.47 µM (inactive),0.767 µM (active),14.1 µM (inactive),0.187 µM,2.44 µM (inactive),6.21 µM (inactive),2.57 µM (inactive),2.72 µM (inactive)
